Source: US20170175081A1, “Methods of Obtaining Islet Cells” (The University Court of the University of Aberdeen, priority 2014, published 2017)

Columns and labels:
[1] = system: reprogrammed human exocrine pancreatic cells; experiment: C-peptide ELISA of cell extracts, reprogrammed (siARX) with or without ZnCl2; type: cell-based; conditions: ZnCl2 10 μM; p<0.01 relative to siARX
Protocol: FIG. 19. C-peptide ELISA measurements of cell extracts from untreated cells (N/A) or cells reprogrammed (siARX) in the absence or presence of ZnCl2 (10 μM). C-peptide levels were expressed level to protein content and represent […] (n=3). ***p<0.001 relative to NA and **p<0.01 relative to siARX.
(§1) Human exocrine fractions were thawed and plated on tissue culture 9 cm^2 dishes (Greiner, Stonehouse, UK) and cultured for two days in RPMI 1640 (Gibco, Life Technologies) supplemented with 10% foetal bovine serum (FBS), 10 mM HEPES, 1 mM sodium pyruvate (all from Gibco) and 75 μM β-mercaptoethanol (Sigma Aldrich). After 48 h, the cells were incubated for another 72 h in serum free medium (SFM) prepared with RPMI 1640, insulin-transferrin-selenium (Gibco) and 1% bovine serum albumin (Sigma), supplemented with 10 μM SB431542, 2 μM Y27632, 1 μM 5-Aza-2′deoxycytidine and 10 mM sodium butyrate (all from Sigma). On the next day the cells were incubated for 4 h with the adenoviruses encoding pancreatic transcription factors PDX1, MAFA, NGN3 and PAX4. On the following day the medium was changed for SFM supplemented with 1 nM betacellulin (R&D systems, Abingdon, UK), 10 nM exendin-4 and 10 mM nicotinamide (both from Sigma). The medium was changed every two days for another 6 days before harvesting. […]

[2] = system: reprogrammed human exocrine pancreatic cells; experiment: RT-qPCR of cells reprogrammed (siARX) with or without zinc; type: cell-based; conditions: ZnCl2 10 μM; partly attributed to increased PAX4 mRNA
Protocol: FIG. 18. RT-qPCR analysis of the three main endocrine hormones insulin (INS), glucagon (GCG) and somatostatin (SST) and the transcription factors PDX1, PAX4, MAFA, NEUROD, NGN3 and NKX6.1 in untreated (N/A) or cells reprogrammed (siARX) in the absence or presence of ZnCl2 (10 μM). Expression was normalised to glyceraldehyde 3-phosphate dehydrogenase. Data are representative of triplicate experiments and represented as mean+/−standard error of the mean.
as §1, with “Sigma).” for “Sigma). The medium was changed every two days for another 6 days before harvesting.”

[3] = system: islet enriched pancreatic cells; experiment: Ad-KLF4 with and without Rho-kinase inhibitor Y27632, gene expression; type: cell-based, human; conditions: Y27632 20 uM; up to 10 days post infection
Protocol: FIG. 11. […] A one-way ANOVA was performed with Dunnett post hoc test comparing treatment groups. […] B: Samples were fixed and permeabilised at day 6 for E-cadherin and cleaved caspase-3.
Total RNA was extracted using TRIzol® and treated with DNaseI (both Life Technologies) followed by cDNA synthesis using 1 μg of RNA per sample. qRT-PCR mixtures were prepared using SensiMix II probe kit (Bioline, London, UK) and TaqMan gene expression assays (Applied Biosystems, Paisley, UK) as per manufacturer's instructions. cDNA was amplified on Roche LightCycler 480® for 50 cycles. Samples were run in triplicate and normalised to glyceraldehyde 3-phosphate dehydrogenase (GAPDH) and/or 60S ribosomal protein L13a (RPL13a). Data was analysed using the 2^−ΔΔCT method (Brodsky et al., 1999). Statistical analysis was performed using GraphPad Prism software and the Student t test or one-way/two-way ANOVA, followed by the Dunnett post hoc test, were used as appropriate.
We next hypothesised that adjusting the cell culture environment to promote survival of newly formed epithelial cells would enhance redifferentiation.

SMILES | insulin (C-peptide) protein content [1] | insulin gene expression [2] | gene expression, Ad-KLF4 with vs without Y27632 [3]
[Cl-].[Cl-].[Zn+2] [ZnCl2] | stimulatory effect | significant effect | –
C[C@@H](N)[C@H]1CC[C@H](C(=O)Nc2ccncc2)CC1 [Y27632] | – | – | no significant difference
